Key:
[1] = tested on: MC/9 murine fibroblast cell line; assay: MC/9 cell proliferation, Promega cell titer assay; assay type: cell-based; conditions: 72 hours
Procedure: Cells of the MC/9 murine […] cell line (obtained from ATCC, catalog no. CRL-8305) were placed into the wells of a 96-well tissue culture plate at 25,000 cells/well. The culture medium was Delbecco's Modified Eagle's Medium (DMEM) (obtained from Cambrex) containing 10% fetal calf serum (FCS) (obtained from ATCC). Nil control wells contained no additives. The remaining wells contained either 25 ng/ml murine nerve growth factor (NGF) (obtained from Upstate Biotechnology, Lake Placid, NY) or 25 ng/ml NGF and 5% TSTIM (a culture supplement prepared from rats and containing concanavalin A which was obtained from BD Biosciences). […] After 72 hours of culture at 37° C. and 5% CO2, cell proliferation was evaluated by the Promega cell titer assay as described in Example 1.

IL-8 [2] = assay: IL-8 release by TNFα-stimulated HUVECs, ELISA; assay type: cell-based, human; conditions: HUVECs lot 8710, no TNFα, no additives 207.15
TNFα = TNFα release from LPS-stimulated THP-1 monocytes, ELISA; assay type: cell-based, human; conditions: THP-1, LPS 200 ng/ml, Cpd II 15 μg/ml, Dex 10 μM
Procedure: THP-1 is a monocyte cell line obtained from American Type Culture Collection (ATCC) (catalog no. TIB-202). […] After 1 hour, lipopolysaccharide (LPS) (obtained from Sigma) was added to the cultures to give a final concentration of 200 ng/ml, and the cells were then incubated for an additional 4 hours or for an additional 24 hours. After the incubation, the cells were centrifuged, and the supernatants were collected. The concentrations of IL-8 and TNFα in the supernatants were determined by ELISA.
The TNFα ELISA was performed as described in Example 2.

HUVECs = assay: Cell death of HUVECs in the TNFα/IL-8 experiment; assay type: cell-based, human; conditions: highest dose (30 μg/ml)
Procedure: Passage 4 HUVECs, human source lot number 8710 (obtained from ATCC), were put into the wells of a 24-well tissue culture plate at 5,000 cells/well in EGM-2 medium (obtained from Cambrex) and cultured for 72 hours at 37° C. and 5% CO2. […] After incubation for 1 hour at 37° C. and 5% CO2, TNFα (obtained from Pierce) was added to give a final concentration of 10 ng/ml, and the cells were incubated for an additional 18 hours at 37° C. and 5% CO2. After this incubation, the supernatants were collected, and the amount of IL-8 in the supernatants determined by ELISA as described in Example 4.

RAP2 = assay: Custom AntibodyArray, TRiPS cells: RAP2; assay type: cell-based, human; conditions: 15 μg/ml, 30 minutes
Procedure: (§1) Day 18 TRiPS cells, 1×10^6, were incubated for 30 minutes at 37° C., either with nothing added (“Nil”), with 1 μl CD3/CD28 Dynabeads (Dynal, Oslo, Norway) (“CD3/CD28 beads”) per 100,000 cells, or with CD3/CD28 beads and 15 μg/ml of the compound of formula II (Cpd II). After the incubation, the cells were lysed in Cell-Lytic Mammalian Cell Extraction Reagent (Sigma). After centrifugation to pellet cellular debris, the supernatants (cell extracts) were obtained.
(§2) The cell extracts (supernatants) were then analyzed using a Custom AntibodyArray™ manufactured by Hypromatrix Inc., Worcester, Mass., following the manufacturer's instructions. The Custom AntibodyArray™ is a nylon membrane blotted with antibodies to the proteins listed below. Briefly, the cell extracts were incubated with duplicate Custom AntibodyArray™'s for 2 hours at room temperature with slow shaking, followed by three washes with Tris buffer (150 mM NaCl, 25 mM Tris, 0.05% Tween-20, pH 7.5). HRP-labeled antibodies specific for phosphorylated-tyrosine, phosphorylated-serine and phosphorylated-threonine in Tris buffer were added, and the arrays incubated for 2 hours. After three more washes with Tris buffer, a peroxidase-reactive luminescent substrate was added. The arrays were visualized by exposure to X-ray film. Densitometry of the X-ray films was measured by scanning and computer analysis.

IL-8 [3] = assay: IL-8 release by LPS-stimulated HUVECs, ELISA; assay type: cell-based, human; conditions: for IL-8: LPS 200 ng/ml overnight + 15 μg/ml
Procedure: Passage 4 (i.e., four cell population doublings) human umbilical vein endothelial cells (HUVECs), human source lot number 9713 (obtained from ATCC), were put into the wells of a 48-well tissue culture plate at 20,000 cells/well in 500 μl of endothelial growth medium-2 (EGM-2) complete medium (but without serum or ascorbate) (obtained from Cambrex) supplemented with ITSS (insulin, transferrin and sodium selenite) (obtained from Sigma). Also, passage 4 HUVECs, human source lot number 7016 (obtained from ATCC), were put into the wells of a 48-well tissue culture plate at 20,000 cells/well in 500 μl of EGM-2 complete medium (but without serum or ascorbate) supplemented with ITSS. The following additives were added to the cells: water (vehicle control) and 15 μg/ml of the compound of formula II (Cpd II). After incubation for 1 hour at 37 ° C. and 5% CO2, lipopolysaccharide (LPS) (obtained from Sigma) was added to give a final concentration of 200 ng/ml, and the cells were incubated overnight at 37° C. and 5% CO2. After this incubation, the supernatants were collected, and the amount of IL-8 in the supernatants determined by ELISA as described in Example 4.

JNK2 = assay: Custom AntibodyArray, TRiPS cells: JNK2; assay type: cell-based, human; conditions: 15 μg/ml, 30 minutes
Procedure: as §1, §2

`COC(=O)C(c1ccc(-c2ccccc2)cc1)C1CCCCN1` (stereo not drawn) [Cpd II] was tested, and the “Mean OD 530 nm” value ([1]; MC/9, NGF 25 ng/ml + 1 μg/ml, NGF + water 0.101) was 0.117 ± 0.015, the “Mean OD 530 nm” value ([1]; MC/9, NGF 25 ng/ml + 5 μg/ml, NGF + water 0.101) was 0.108 ± 0.012 and the “Mean OD 530 nm” value ([1]; MC/9, NGF 25 ng/ml + 15 μg/ml, NGF + water 0.101) was 0.049 ± 0.016. For the same compound, the “Mean OD 530 nm” value ([1]; MC/9, NGF + TSTIM + 1 μg/ml, NGF + TSTIM + water 0.365) was 0.428 ± 0.027, the “Mean OD 530 nm” value ([1]; MC/9, NGF + TSTIM + 5 μg/ml, NGF + TSTIM + water 0.365) was 0.373 ± 0.016 and the “Mean OD 530 nm” value ([1]; MC/9, NGF + TSTIM + 15 μg/ml, NGF + TSTIM + water 0.365) was 0.326 ± 0.024. For the same compound, the “Mean IL-8” value (IL-8 [2]; 15 μg/ml) was 400.35 pg/mL, the “Mean IL-8” value (IL-8 [2]; 30 μg/ml) was 0 pg/mL and the inhibition at 15 µg/mL (TNFα; Homo sapiens, 24 hours) was 53%. For the same compound, the “Mean TNFα Concentration” value (TNFα; 24 hours, LPS alone 138.655) was 65.370 ± 0.891 pg/mL, the “release of TNFα from LPS-stimulated monocytes (in words)” value (TNFα) was “significantly inhibited the release of TNFα” and the cell death (HUVECs) was “some cell death”. The “Effect of Cpd II on the protein in CD3/CD28 stimulated TRiPS cells” value (RAP2) was “Activated”, the IL-8 (IL-8 [3]; 7016 HUVECs, LPS only 53.3) was “Below detection” and the IL-8 (IL-8 [3]; 9713 HUVECs, LPS only 485.0) was 49.8 pg/mL. For the same compound, the “IL-8 release by the 7016 HUVECs (in words)” value (IL-8 [3]; LPS 200 ng/ml + 15 μg/ml) was “complete eliminated IL-8 release”, the “decrease of IL-8 release in the 9713 HUVECs” value (IL-8 [3]; LPS 200 ng/ml + 15 μg/ml) was 90% and the “Effect of Cpd II on the protein in CD3/CD28 stimulated TRiPS cells” value (JNK2) was “Decreased level back to basal levels (Nil control)”.

— patent US20060183773A1, “Uses of methylphenidate derivatives” (priority 2005, published 2006)
